Experimental data as given in patent US4537777A, “A52688 Antibiotics and process for their production” (priority 1983, dated 1985).
Like-named read-outs stand apart in the source and are kept apart here.

Key:
[1] = test system: Bacillus stereothermophilus; test: standard disc-plate assay; type: cell-based; settings: read-out: Zone Diameters
[2] = test system: Trichophyton mentagroprophytes; test: standard disc-plate assay; type: cell-based; settings: read-out: Zone Diameters
[3] = test system: Neurospora crassa; test: standard disc-plate assay; type: cell-based; settings: read-out: Zone Diameters
[4] = test system: Candida albicans; test: standard disc-plate assay; type: cell-based; settings: read-out: Zone Diameters
[5] = test system: Micrococcus luteus; test: standard disc-plate assay; type: cell-based; settings: read-out: Zone Diameters
[6] = test system: Bacillus subtilis; test: standard disc-plate assay; type: cell-based; settings: read-out: Zone Diameters
[7] = test system: Saccharomyces pastorianus; test: standard disc-plate assay; type: cell-based; settings: read-out: Zone Diameters
[8] = acute toxicity in mice; settings: mouse, in vivo, ip, intraperitoneal, formulated in aqueous PVP, read-out: Intraperitoneal LD50
Excerpt: ^a Compounds formulated in aqueous PVP
^b Route test compound administered

[9] = test system: Staphylococcus aureus; test: standard disc-plate assay; type: cell-based; settings: read-out: Zone Diameters
[10] = test system: Pseudomonas solanacearum; test: microbe, parasite or virus in culture; type: cell-based; settings: Ralstonia solanacearum, read-out: Zone Diameters
[11] = test system: Salmonella gallinarium; test: standard disc-plate assay; type: cell-based; settings: read-out: Zone Diameters
[12] = test system: Proteus vulgaris; test: standard disc-plate assay; type: cell-based; settings: read-out: Zone Diameters
[13] = test system: Pseudomonas aeruginosa; test: standard disc-plate assay; type: cell-based; settings: read-out: Zone Diameters
[14] = test system: Serratia marcescens; test: standard disc-plate assay; type: cell-based; settings: read-out: Zone Diameters
[15] = test system: Escherichia coli; test: standard disc-plate assay; type: cell-based
Procedure: In Table IX the standard discplate-assay activity of the A52688 factors is summarized. Activity is measured as the diameter (in mm) of the observed zone of inhibition; the diameter of the disc used in each case was 6.35 mm.

[16] = test system: Mycobacterium avium; test: standard disc-plate assay; type: cell-based; settings: read-out: Zone Diameters
[17] = test system: Adenocarcinoma 755; test: murine-transplanted tumor adenocarcinoma 755 in mice; type: in vivo; settings: daily for 10 days
Procedure: A52688 factors A, C, D, E, F, G, H, J and K and the specified acyl esters of factors A, C, D, E, G, H, J and K are especially useful as oncolytic agents.
Table X summarizes the results of experiments in which mice bearing the murine-transplanted tumor adenocarcinoma 755 were treated with compounds of this invention. In each test the compound was administered by the intraperitoneal route at specified dose levels. The compound was administered over a ten-day period, either on a daily basis or on days one, five and nine, as indicated.

[18] = conc 0.1 mg/ml, disc 6.35 mm, ^b overgrowth: factors B, C, F
[19] = conc 0.1 mg/ml, disc 6.35 mm, ^b overgrowth: factor B
[20] = read-out: Zone Diameters, conc 0.1 mg/ml, disc 6.35 mm
[21] = read-out: Zone Diameters, in minimal medium, conc 0.1 mg/ml, disc 6.35 mm
[22] = 0.25 mg/kg i.p., of 10 mice tested (9 for factor E)
[23] = 0.50 mg/kg i.p., of 10 mice tested (8 for factor E)
[24] = conc 0.1 mg/ml, disc 6.35 mm, ^b overgrowth: factors A, C, E, F, G
[25] = conc 0.1 mg/ml, disc 6.35 mm, ^b overgrowth: factor C
[26] = conc 0.1 mg/ml, disc 6.35 mm, read-out: Zone Diameters
[27] = in minimal medium, conc 0.1 mg/ml, disc 6.35 mm, read-out: Zone Diameters
[28] = conc 0.1 mg/ml, disc 6.35 mm, ^b overgrowth: factor F
[29] = 1.00 mg/kg i.p., of 10 (factor E) or 9 (factor F) mice tested

O=CNC=Cc1ccc(O)cc1 [Factor B]
zone of inhibition at 100 µg/mL ([1]; conc 0.1 mg/ml, disc 6.35 mm): 21 mm | zone of inhibition at 100 µg/mL ([2]; conc 0.1 mg/ml, disc 6.35 mm): 19 mm | zone of inhibition at 100 µg/mL ([3]; conc 0.1 mg/ml, disc 6.35 mm): 24 mm | zone of inhibition at 100 µg/mL ([4]; conc 0.1 mg/ml, disc 6.35 mm): 11 mm | zone of inhibition at 100 µg/mL ([5]; conc 0.1 mg/ml, disc 6.35 mm): 22 mm | zone of inhibition at 100 µg/mL ([6]; conc 0.1 mg/ml, disc 6.35 mm): 21 mm | zone of inhibition at 100 µg/mL [7, 18]: 14 mm | LD50 [8]: > 75 mg/kg | zone of inhibition at 100 µg/mL [9, 19]: 25 mm

[C-]#[N+]C(=CC1=C[C@@H](OC)[C@@H](O)CC1)C(=CC1CCC(OC(=O)C=C(C)C)CC1)[N+]#[C-] (relative stereo) [Factor J]
zone of inhibition at 100 µg/mL ([10]; conc 0.1 mg/ml): 21 mm | zone of inhibition at 100 µg/mL [1]: 25 mm | zone of inhibition at 100 µg/mL [2]: 37 mm | zone of inhibition at 100 µg/mL [11]: 17 mm | zone of inhibition at 100 µg/mL [12]: 22 mm | zone of inhibition at 100 µg/mL [13]: 12 mm | zone of inhibition at 100 µg/mL [3]: 36 mm | zone of inhibition at 100 µg/mL [4]: 22 mm | zone of inhibition at 100 µg/mL [14]: 12 mm | zone of inhibition at 100 µg/mL [5]: 29 mm | zone of inhibition at 100 µg/mL [6]: 19 mm | zone of inhibition at 100 µg/mL [15, 20]: 15 mm | zone of inhibition at 100 µg/mL [15, 21]: 13 mm | zone of inhibition at 100 µg/mL [16]: 14 mm | zone of inhibition at 100 µg/mL [7]: 19 mm | zone of inhibition at 100 µg/mL [9]: 23 mm

[C-]#[N+]C(=CC1=C[C@@H](O)[C@H](O)CC1)C(=CC1CCC(O)CC1)[N+]#[C-] (relative stereo) [Factor C]
zone of inhibition at 100 µg/mL ([10]; conc 0.1 mg/ml): 20 mm | Percent Tumor Inhibition ([17]; 0.125 mg/kg i.p.): 60% | Toxic Deaths ([17]; 0.125 mg/kg i.p., of 10 mice tested): 0 | Percent Tumor Inhibition ([17]; 0.25 mg/kg i.p.): 47% | Toxic Deaths [17, 22]: 0 | Percent Tumor Inhibition ([17]; 0.50 mg/kg i.p.): 72% | Toxic Deaths [17, 23]: 5 | zone of inhibition at 100 µg/mL [1]: 35 mm | zone of inhibition at 100 µg/mL [2]: 15 mm | zone of inhibition at 100 µg/mL [11]: 38 mm | zone of inhibition at 100 µg/mL [12]: 26 mm | zone of inhibition at 100 µg/mL [3]: 22 mm | zone of inhibition at 100 µg/mL [4]: 16 mm | zone of inhibition at 100 µg/mL [14]: 15 mm | zone of inhibition at 100 µg/mL [5]: 33 mm | zone of inhibition at 100 µg/mL [6]: 23 mm | zone of inhibition at 100 µg/mL [15, 20]: 24 mm | zone of inhibition at 100 µg/mL [15, 21]: 20 mm | zone of inhibition at 100 µg/mL [16]: 18 mm | zone of inhibition at 100 µg/mL [7]: 15 mm | LD50 [8]: < 2.34 mg/kg | zone of inhibition at 100 µg/mL [9]: 16 mm

[C-]#[N+]C(=Cc1ccc(O)cc1)C(=CC1CCC(OC(=O)C=C(C)C)CC1)[N+]#[C-] (centres unmarked) [Factor D]
zone of inhibition at 100 µg/mL [10]: 17 mm | zone of inhibition at 100 µg/mL ([1]; conc 0.1 mg/ml, disc 6.35 mm): 21 mm | zone of inhibition at 100 µg/mL ([2]; conc 0.1 mg/ml, disc 6.35 mm): 21 mm | zone of inhibition at 100 µg/mL ([11]; conc 0.1 mg/ml, disc 6.35 mm): 14 mm | zone of inhibition at 100 µg/mL [12, 24]: 12 mm | zone of inhibition at 100 µg/mL ([13]; conc 0.1 mg/ml, disc 6.35 mm): 13 mm | zone of inhibition at 100 µg/mL ([3]; conc 0.1 mg/ml, disc 6.35 mm): 22 mm | zone of inhibition at 100 µg/mL ([4]; conc 0.1 mg/ml, disc 6.35 mm): 19 mm | zone of inhibition at 100 µg/mL [14, 25]: 12 mm | zone of inhibition at 100 µg/mL ([5]; conc 0.1 mg/ml, disc 6.35 mm): 26 mm | zone of inhibition at 100 µg/mL ([6]; conc 0.1 mg/ml, disc 6.35 mm): 18 mm | zone of inhibition at 100 µg/mL [15, 26]: 15 mm | zone of inhibition at 100 µg/mL [15, 27]: 11 mm | zone of inhibition at 100 µg/mL [16, 28]: 13 mm | zone of inhibition at 100 µg/mL [7, 18]: 13 mm | LD50 [8]: 0.992 mg/kg | zone of inhibition at 100 µg/mL [9, 19]: 18 mm

[C-]#[N+]C(=CC1=C[C@@H](OC(C)=O)[C@H](O)CC1)C(=CC1CCC(OC(=O)C=C(C)C)CC1)[N+]#[C-] (relative stereo) [Factor H]
zone of inhibition at 100 µg/mL [10]: 18 mm | zone of inhibition at 100 µg/mL ([1]; conc 0.1 mg/ml, disc 6.35 mm): 24 mm | zone of inhibition at 100 µg/mL ([2]; conc 0.1 mg/ml, disc 6.35 mm): 35 mm | zone of inhibition at 100 µg/mL ([11]; conc 0.1 mg/ml, disc 6.35 mm): 16 mm | zone of inhibition at 100 µg/mL [12, 24]: 17 mm | zone of inhibition at 100 µg/mL ([13]; conc 0.1 mg/ml, disc 6.35 mm): 11 mm | zone of inhibition at 100 µg/mL ([3]; conc 0.1 mg/ml, disc 6.35 mm): 33 mm | zone of inhibition at 100 µg/mL ([4]; conc 0.1 mg/ml, disc 6.35 mm): 18 mm | zone of inhibition at 100 µg/mL [14, 25]: 10 mm | zone of inhibition at 100 µg/mL ([5]; conc 0.1 mg/ml, disc 6.35 mm): 27 mm | zone of inhibition at 100 µg/mL ([6]; conc 0.1 mg/ml, disc 6.35 mm): 16 mm | zone of inhibition at 100 µg/mL [15, 26]: 15 mm | zone of inhibition at 100 µg/mL [15, 27]: 10 mm | zone of inhibition at 100 µg/mL [16, 28]: 10 mm | zone of inhibition at 100 µg/mL [7, 18]: 16 mm | zone of inhibition at 100 µg/mL [9, 19]: 20 mm

[C-]#[N+]C(=CC1=C[C@@H](O)[C@@H](O)CC1)C(=CC1CCC(OC(=O)C=C(C)C)CC1)[N+]#[C-] (relative stereo) [Factor E]
zone of inhibition at 100 µg/mL ([10]; conc 0.1 mg/ml): 24 mm | Percent Tumor Inhibition ([17]; 0.25 mg/kg i.p.): 22% | Toxic Deaths [17, 22]: 0 | Percent Tumor Inhibition ([17]; 0.50 mg/kg i.p.): 74% | Toxic Deaths [17, 23]: 3 | Percent Tumor Inhibition ([17]; 1.00 mg/kg i.p.): toxic | Toxic Deaths [17, 29]: 10 | zone of inhibition at 100 µg/mL [1]: 30 mm | zone of inhibition at 100 µg/mL [2]: 43 mm | zone of inhibition at 100 µg/mL [11]: 19 mm | zone of inhibition at 100 µg/mL [12]: 21 mm | zone of inhibition at 100 µg/mL [13]: 17 mm | zone of inhibition at 100 µg/mL [3]: 34 mm | zone of inhibition at 100 µg/mL [4]: 29 mm | zone of inhibition at 100 µg/mL [14]: 17 mm | zone of inhibition at 100 µg/mL [5]: 24 mm | zone of inhibition at 100 µg/mL [6]: 29 mm | zone of inhibition at 100 µg/mL [15, 20]: 18 mm | zone of inhibition at 100 µg/mL [15, 21]: 16 mm | zone of inhibition at 100 µg/mL [16]: 15 mm | zone of inhibition at 100 µg/mL [7]: 20 mm | LD50 [8]: 3.54 mg/kg | zone of inhibition at 100 µg/mL [9]: 21 mm

[C-]#[N+]C(=CC1CCC(OC(=O)C=C(C)C)CC1)C(=CC1(OC(C)=O)C=CC(=O)CC1)[N+]#[C-] (centres unmarked) [Factor F]
zone of inhibition at 100 µg/mL [10]: 10 mm | Percent Tumor Inhibition ([17]; 0.25 mg/kg i.p.): 51% | Toxic Deaths [17, 22]: 0 | Percent Tumor Inhibition ([17]; 0.50 mg/kg i.p.): 69% | Toxic Deaths [17, 23]: 0 | Percent Tumor Inhibition ([17]; 1.00 mg/kg i.p.): 91% | Toxic Deaths [17, 29]: 2 | Percent Tumor Inhibition ([17]; 2.00 mg/kg i.p.): toxic | Toxic Deaths ([17]; 2.00 mg/kg i.p., of 10 mice tested): 10 | zone of inhibition at 100 µg/mL ([1]; conc 0.1 mg/ml, disc 6.35 mm): 27 mm | zone of inhibition at 100 µg/mL ([2]; conc 0.1 mg/ml, disc 6.35 mm): 20 mm | zone of inhibition at 100 µg/mL ([11]; conc 0.1 mg/ml, disc 6.35 mm): 11 mm | zone of inhibition at 100 µg/mL [12, 24]: 20 mm | zone of inhibition at 100 µg/mL ([3]; conc 0.1 mg/ml, disc 6.35 mm): 33 mm | zone of inhibition at 100 µg/mL ([4]; conc 0.1 mg/ml, disc 6.35 mm): 21 mm | zone of inhibition at 100 µg/mL ([5]; conc 0.1 mg/ml, disc 6.35 mm): 30 mm | zone of inhibition at 100 µg/mL ([6]; conc 0.1 mg/ml, disc 6.35 mm): 27 mm | zone of inhibition at 100 µg/mL [15, 26]: 17 mm | zone of inhibition at 100 µg/mL [16, 28]: 17 mm | zone of inhibition at 100 µg/mL [7, 18]: 22 mm | LD50 [8]: 5 mg/kg | zone of inhibition at 100 µg/mL [9, 19]: 26 mm
